This is an account of results in US12440502B2, “Use of thyroid beta-agonists” (priority 2016, dated 2025).

For data set [1], the system named is X-ALD fibroblast cell lines. The experiment in a line: Cell health (proliferation, morphology, death) of treated X-ALD fibroblasts. In kind it is cell-based, human. Particulars: for cell survival of X-ALD cell lines: 100 μM, two X-ALD cell lines; for proliferation and morphology of cells: after 72 hours. As to the method: Human primary fibroblasts. Human skin fibroblasts were obtained from X-ALD patients through the Neurology Outpatient Clinic of the Academic Medical Center. Written informed consent was received from each patient. X-ALD diagnosis was confirmed by VLCFA and ABCD1 mutation analysis. Control fibroblasts were obtained from male anonymous volunteers with written informed consent. Fibroblasts were cultured in Dulbecco's modified Eagle's medium (DMEM) with L-glutamine and 4.5 g/L glucose, supplemented with 10% fetal calf serum, 2.5 mM HEPES, 100 U/ml penicillin and 100 U/ml streptomycin. Cells were cultured at 37° C. in a humidified 5% CO2 atmosphere. All fibroblast cell lines used were tested routinely for mycoplasma. All tests were negative.
Preparation of stock solutions. 10 mM stock solutions in DMSO were prepared by weighing the amount of compound (1 and 3 and their respective active metabolites, 2 and 4) as indicated in Table 2. Stock solutions were stored at room temperature in the dark. For each incubation, the amount of tissue culture medium needed was calculated and a stock solution of tissue culture medium with the final concentration of the to-be-tested compound was prepared. Tissue culture medium was removed from the cells, cells were washed once with PBS and the tissue culture medium with the compounds was added. If an experiment lasted longer than three days, the tissue culture medium and compounds were refreshed (using a fresh preparation) after three days until the end of the experiment.
Two different X-ALD fibroblast cell lines were incubated in duplicate with four compounds at three dosages as highlighted in Table 3.
4 X-ALD cell lines were incubated with 10 μM of 4 compounds 1, 2, 3, and 4. The effect of treatment on ABCD2 expression was analyzed at day 3 and day 10. For the 10 day incubation, tissue culture medium and compounds were refreshed at day 3 and day 6.

Data set [2] relates to ABCD1−/− mice. The experiment in a line: Whole blood VLCFA-LPC levels in an in vivo model of X-ALD. As to conditions: for C26:0-LPC Difference in Mean Change from Baseline / C26:0-LPC % Difference versus Vehicle: initial cohort, whole blood; for Least Squares Mean Change from Baseline Whole Blood C26:0-LPC Levels: second cohort, daily IP. The arrangement: species or system mouse. As to the method: (§1) Animals. Male ABCD1−/− mice were developed using the Taconic 129SvEv background strain. Animals were housed 3-4/cage under a 12-hour lighting cycle (7 AM-7 PM light) and controlled temperature (22° C.) in the rodent facility. They were fed standard mouse chow and had access to drinking water ad libitum. Mice were between 2 and 3 months of age at the beginning of each study.
(§2) Study Protocol. Mice were injected once daily intraperitoneal with either drug or vehicle. For blood collection, ˜50 μL of blood was obtained by facial vein puncture using a sterile lancet. Blood was collected in a 1.5 ml microcentrifuge tube containing dried dipotassium EDTA and mixed by gentle inversion at least ten times before storing at −20° C. Blood was obtained in this manner following two, four, and six weeks of treatment. Following blood collection at six weeks, animals were sacrificed by cervical dislocation. Additional blood for preparation of plasma was obtained via cardiac puncture, and blood placed in Microtainer tubes. Brain, spinal cord, adrenal glands, testis, and liver were excised and snap frozen in liquid nitrogen for future analyses.
An initial cohort of 16 mice were randomized 3:1 to receive compound 3 or placebo, once daily for six weeks. […] Treated animals continued to experience progressive declines in C26:0-LPC through six weeks.
(§3) Based on the encouraging results of the initial cohort, a second, larger, cohort was evaluated. A total of 20 mice were randomized 1:1 to receive daily compound 3 or vehicle, by IP administration, for six weeks.

In data set [3] the test system is ABCD1−/− mice. The data set can be described thus: Plasma VLCFA-LPC levels in an in vivo model of X-ALD (second cohort). More on the design: species or system mouse. As to the method:
as §1, §2, §3
During the second cohort study, blood was obtained as described in the Methods section. At the six week time point sufficient blood was collected to permit plasma VLCFA analyses at weeks two, four and six. Plasma is considered by many to be a more reliable measurement of VLCFA levels, because of reduced analytical interference from other analytes, as well as reduced variability of the measurements.

Data set [4] relates to X-ALD cell lines. The experiment in a line: De novo D3-C26:0 synthesis from D3-C22:0 in intact X-ALD cells. In kind it is cell-based, human. Particulars: 10 day treatment, 5 X-ALD cell lines. As to the method: The effect of treatment on D3-C26:0 synthesis in intact cells. The effect of certain compounds of the invention on the synthesis of D3-C26:0 from D3-C22:0 was measured in cultured skin fibroblasts from controls and X-ALD patients. Cells were seeded at approximately 40% confluency in T75 flasks in DMEM. The next day, medium was replaced with medium containing 30 μM D3-C22:0 and the assayed compounds at their final concentration. […] Each 72 h, the tissue culture medium and compounds was refreshed. At the end of the experiment cells were harvested and VLCFA analyzed as described (Valianpour et al., Molecular Genetics and Metabolism, 79: 189-196 (2003)).
(§4) VLCFA measurement. VLCFA were analyzed by electrospray ionization mass spectrometry (ESI-MS) as described (Valianpour et al., Molecular Genetics and Metabolism, 79: 189-196 (2003)).
(§5) 5 different X-ALD cell lines were incubated for 6 days with compounds 1, 2, 3, and 4 at 10 μM, 5 mM 4PBA (sodium 4-phenylbutyrate), or 0.1 μM sobetirome. On Day 6, 30 μM D3C22:0 was added to assess the effect of treatment on beta-oxidation and de novo D3C26:0 synthesis. 6 untreated control cells as well as 5 different untreated X-ALD cells were included to allow assessment of the treatment effect. The total set consisted of 41 experiments

The subject of data set [5] is X-ALD cell lines. The experiment in a line: D3-C22:0 (VLCFA) beta-oxidation in intact X-ALD cells. The format is cell-based, human. Particulars: 0.1 μM; 10 day treatment; 5 X-ALD cell lines. As to the method:
The effect of treatment on D3-C22:0 beta-oxidation in intact cells. Peroxisomal beta-oxidation activity was measured essentially as described by incubating cells with 30 μM deuterium-labeled C22:0 (D3-C22:0) (Kemp et al., Clinical Chemistry 50: 1824-1826 (2004)). Cells were seeded at approximately 40% confluency in T75 flasks in DMEM. The next day, medium was replaced with medium containing 30 μM D3-C22:0 and assayed compounds at their final concentration. […] Each 72 h, the tissue culture medium and compounds was refreshed. At the end of the experiment cells were harvested and VLCFA analyzed as described (Valianpour et al., Molecular Genetics and Metabolism, 79: 189-196 (2003)).
as §4, §5

SMILES strings stand for the structures.

Take `Cc1cc(OC[P@@]2(=O)OCC[C@@H](c3cccc(Cl)c3)O2)cc(C)c1Cc1ccc(O)c(C(C)C)c1` [Compound 1]: the “cell survival of X-ALD cell lines” value in data set [1] was “dead within 24 hours”. In addition, in data set [1] (0.1 or 10 μM), the “proliferation and morphology of cells” value is given as “looked healthy”.

Turning to `Cc1cc(OCP(=O)(O)O)cc(C)c1Cc1ccc(O)c(C(C)C)c1` [Compound 2], in data set [1] (0.1, 1 or 10 μM), the “proliferation and morphology of cells” value is given as “looked healthy”.

In the case of `Cc1cc(OCP(=O)(OCOC(=O)C(C)(C)C)OCOC(=O)C(C)(C)C)cc(C)c1Cc1ccc(O)c(Cc2ccccc2)c1` [Compound 3], the “C20:0-, C22:0-, and C24:0-LPC levels” value in the data set on ABCD1−/− mice [2] (after six weeks of treatment) is “significant reductions”. Also, the “C26:0-LPC Difference in Mean Change from Baseline” value was -0.052 µM in the data set on ABCD1−/− mice [2] (week 2) and -0.081 µM with ABCD1−/− mice [2] (week 4). In addition, the “C26:0-LPC % Difference versus Vehicle” value in the data set on ABCD1−/− mice [2] (week 2, p NS) was 0%; in the data set on ABCD1−/− mice [2] (week 4, p NS), −11%; with ABCD1−/− mice [2] (week 6, p<0.0001) it was −40%. Further, the “Least Squares Mean Change from Baseline Whole Blood C26:0-LPC Levels” value in the data set on ABCD1−/− mice [2] (week 2, p NS versus vehicle) is -0.021 µM; in the data set on ABCD1−/− mice [2] (week 4, p<0.01 versus vehicle) it was -0.096 µM; with ABCD1−/− mice [2] (week 6, p<0.005 versus vehicle) it was -0.12 µM. Also, in the data set with ABCD1−/− mice [3] (week 6, p<0.0001), the “Plasma C20:0-LPC % Difference vs. Vehicle” value is recorded as −54%. Also, the “Plasma C22:0-LPC % Difference vs. Vehicle” value in the data set with ABCD1−/− mice [3] (week 6, p<0.0001) is listed as −43%. Moreover, the “Plasma C26:0-LPC % Difference vs. Vehicle” value in the data set on ABCD1−/− mice [3] (week 6, p<0.0001) is listed as −29%. The “Plasma C24:0-LPC % Difference vs. Vehicle” value in the data set with ABCD1−/− mice [3] (week 6, p<0.005) is −21%. For the same compound, the “cell survival of X-ALD cell lines” value in data set [1] was “dead within 24 hours”. For the same compound, the “proliferation and morphology of cells” value in data set [1] (0.1 or 10 μM) is “looked healthy”.

Regarding `O=C([O-])CCCc1ccccc1.[Na+]` [Compound 4PBA, sodium 4-phenylbutyrate], in the data set with X-ALD cell lines [4] (5 mM), the VLCFA synthesis result was “near normal levels”.

As to `Cc1cc(OCP(=O)(O)O)cc(C)c1Cc1ccc(O)c(Cc2ccccc2)c1` [Compound 4], in data set [1] (0.1, 1 or 10 μM), the “proliferation and morphology of cells” value was “looked healthy”.

Take `Cc1cc(OCC(=O)O)cc(C)c1Cc1ccc(O)c(C(C)C)c1` [sobetirome]: the “effect on VLCFA beta-oxidation” value with X-ALD cell lines [5] is recorded as “did not show any beneficial effect”. For the same compound, in the data set with X-ALD cell lines [4] (0.1 μM), the “effect on VLCFA de novo synthesis” value is on record as “did not show any beneficial effect”.
